# Data reported in patent publication US20080200439A1, “Methods and compositions for modulating BK channel activity and vasodilation” (University of Tennessee Research Foundation, priority 2006, published 2008).
# Target: T1, cbv1+β4 channels (Rattus norvegicus, UniProt Q62976)
# T1 construct: Full-length cDNA coding for cbv1-subunits was cloned from rat cerebral artery myocytes by PCR; expressed in transfected cells; host or cells: Xenopus laevis oocytes (cRNA co-injection)
# Test: Patch-clamp of cbv1+β4 channels expressed in Xenopus oocytes
# Assay type: cell-based
# Text: cRNA Preparation and Injection into Xenopus Oocytes. Full-length cDNA coding for cbv1-subunits was cloned from rat cerebral artery myocytes by PCR and ligated to the PCR-XL-TOPO cloning vector (Invitrogen Corp., Carlsbad, Calif., United States of America) (Jaggar et al., 2005). cDNA coding for cbv1-subunits was cleaved from the cloning vector by BamHI (Invitrogen Corp., Carlsbad, Calif., United States of America) and XhoI (Promega, Madison, Wis., United States of America) and directly inserted into the pOX vector for expression in Xenopus oocytes. pOX-cbv1 was linearized with NotI (Promega, Madison, Wis., United States of America) and transcribed in vitro using T3 polymerase. […]
# Electrophysiology. […] Single-channel and macroscopic currents were recorded from inside-out (I/O) or outside-out (O/O) patches. […] Nominal free Ca^2+ was calculated with MaxChelator Sliders (C. Patton, Stanford University, California, United States of America) and validated experimentally using Ca^2+-selective electrodes (Corning Incorporated Science Products Division, Corning, N.Y., United States of America). […]
# Currents were recorded using an EPC8 amplifier (HEKA Electronics, Lambrecht/Pfalz, Germany) at 1 kHz using a low-pass, eight-pole Bessel filter 902LPF (Frequency Devices, Haverhill, Mass., United States of America). […]
# T1 sequence (Q62976 1-1148 isoform Q62976-2): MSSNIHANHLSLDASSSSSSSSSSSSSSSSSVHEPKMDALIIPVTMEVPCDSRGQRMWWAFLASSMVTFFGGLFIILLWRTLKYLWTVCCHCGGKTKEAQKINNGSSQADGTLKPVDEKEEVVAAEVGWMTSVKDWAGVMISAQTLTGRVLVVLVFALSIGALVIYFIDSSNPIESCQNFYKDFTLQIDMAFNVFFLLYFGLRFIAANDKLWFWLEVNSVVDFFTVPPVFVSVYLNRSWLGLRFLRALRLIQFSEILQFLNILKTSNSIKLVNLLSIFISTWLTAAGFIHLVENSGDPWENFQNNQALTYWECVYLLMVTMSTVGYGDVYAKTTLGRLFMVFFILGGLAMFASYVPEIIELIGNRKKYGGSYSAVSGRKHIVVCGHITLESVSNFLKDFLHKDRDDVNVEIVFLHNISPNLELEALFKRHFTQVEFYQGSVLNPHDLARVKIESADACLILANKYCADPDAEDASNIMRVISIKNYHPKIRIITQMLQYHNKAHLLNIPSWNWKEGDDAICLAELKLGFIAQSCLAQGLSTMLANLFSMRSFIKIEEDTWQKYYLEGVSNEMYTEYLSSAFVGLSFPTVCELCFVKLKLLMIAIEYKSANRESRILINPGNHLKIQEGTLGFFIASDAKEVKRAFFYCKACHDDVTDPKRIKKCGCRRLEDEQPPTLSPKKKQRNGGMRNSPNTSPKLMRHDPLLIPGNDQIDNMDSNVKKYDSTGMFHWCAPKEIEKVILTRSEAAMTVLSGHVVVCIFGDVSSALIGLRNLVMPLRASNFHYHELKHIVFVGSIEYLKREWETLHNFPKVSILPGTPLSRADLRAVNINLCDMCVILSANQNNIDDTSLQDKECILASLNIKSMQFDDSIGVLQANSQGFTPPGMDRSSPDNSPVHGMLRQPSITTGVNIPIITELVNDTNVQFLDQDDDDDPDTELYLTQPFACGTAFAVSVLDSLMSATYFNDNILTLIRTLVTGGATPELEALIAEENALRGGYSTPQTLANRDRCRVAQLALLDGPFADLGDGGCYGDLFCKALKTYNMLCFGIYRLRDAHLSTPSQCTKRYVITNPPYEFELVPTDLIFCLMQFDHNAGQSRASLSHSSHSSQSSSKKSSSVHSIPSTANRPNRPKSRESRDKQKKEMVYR
# T1 sequence (Q86W47 whole entry partner): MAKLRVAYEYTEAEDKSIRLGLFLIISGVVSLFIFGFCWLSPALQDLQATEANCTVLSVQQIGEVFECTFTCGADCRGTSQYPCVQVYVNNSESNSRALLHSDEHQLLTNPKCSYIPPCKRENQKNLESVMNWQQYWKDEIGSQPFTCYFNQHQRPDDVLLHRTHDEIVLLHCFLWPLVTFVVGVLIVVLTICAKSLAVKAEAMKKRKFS
Compound,"remaining activity at 150 µM (150 μM, I/O patches, conditions identical to cbv1 and cbv1+β1, read-out: NPo (% of control)) [%]","Block of channel NPo (55 nM, protracted exposure)"
"C[C@H](CCC(=O)O)[C@H]1CC[C@H]2[C@@H]3CC[C@@H]4C[C@H](O)CC[C@]4(C)[C@H]3CC[C@]12C [LC, 5β-cholanic acid 3α-ol]",109 ± 11,
"iberiotoxin (QFTDVDCSVSKECWSVCKDLFGVDRGKCMGKKCRCYQ; UniProt P24663 1-37, looked up) [Ibtx, reference compound]",,resistance to block
